Experimental data published in publication PMC11973282, “RAS70 peptide targets multiforme glioblastoma by binding to the plasma membrane heat shock protein HSP70” (Frontiers in Oncology, 2025).

How the values were obtained:
[1] = test system: mHsp70-negative dermal fibroblasts; assay: Flow cytometry of FITC-labeled peptide internalization, negative control cells; assay type: cell-based
[2] = test system: U87 cells (lower chamber; HUVEC and astrocytes barrier); assay: Transwell BBB model, peptide passage and accumulation in tumor cells (also with antibody pre-treatment); assay type: in vitro ADME, human; conditions: transwell BBB model: HUVEC (5×10^5) and astrocytes (5×10^5) in upper chamber, U87 (1×10^4) in lower chamber; FITC-labeled peptide; 36 hours; confocal microscopy count; M ± SE, 3 independent experiments
From the text: Fluorescently labeled cells were counted in the lower chamber.
Next, we assessed the mHsp70- and integrin (αvβ3, αvβ5)-mediated penetration of the TKD and RAS70 via the BBB ( Figure 9B ). […] When anti-αvβ3 and anti-αvβ5 mAbs were employed, we detected the decrease of NGL-RGD and RAS70 penetration via the BBB but not the NGL and TKD peptides.

[3] = test system: human U87 glioblastoma cells; assay: Flow cytometry of FITC-labeled peptide internalization, 24 h (also with antibody pre-treatment); assay type: cell-based; conditions: for peptide internalization after pre-treatment with anti-Hsp70 antibodies: cells pre-treated with anti-Hsp70 mAbs SPA-810, SPA-815 (1:250); for peptide uptake after pre-treatment with both anti-Hsp70 and anti-αvβ3/-αvβ5 mAbs: combination of antibodies; for mean fluorescence intensity (MFI), internalization of FITC-labeled peptide: U87, 50 μg/mL, 24 hours, flow cytometry, M ± SE, 3 independent experiments
Protocol: (§1) The binding of the TKD-sCy5, RAS70-sCy5, and NGL-RGD-sCy5 peptides were analyzed using a CytoFLEX flow cytometer (Beckman Coulter, USA). A single cell suspension of C6, GL261, T98G, U87, U251, ANI, IBD, TMS (0.15×10^6 cells in mL^-1) were incubated for 30 minutes on ice in the dark with peptides in concentration of 75 μg/mL, and then washed with cold PBS solution. Cells without peptides were used as controls. To evaluate incorporation of the fluorescently-labeled peptides for longer period of co-incubation of 24 h cells (C6, GL261, U87, U251) were treated with FITC-labeled peptides, then washed with PBS and assessed on a CytoFLEX flow cytometer (Beckman Coulter, USA). Following FACS analysis cell pellet was further evaluated employing confocal microscopy Leica TCS SP8 (Leica Microsystems, Germany).
(§2) The incorporation of peptides over longer periods of co-incubation with brain tumor cells was additionally analyzed using a Cytomics FC500 flow cytometer (BeckmanCoulter, USA). Tumor cells (C6, GL261, U87, U251) were incubated with peptides (concentration 50 μg/mL) for 24 hours, washed with PBS. Internalization of FITC-labeled peptides was assessed by determining the mean fluorescence intensity (MFI). According to the study data ( Figure 6A ), it was shown that TKD peptide accumulated in all cell lines – 2120 ± 152 (C6), 2099 ± 107 (GL261), 2145 ± 189 (U87), 2373 ± 201 (U251) compared to the control scramble peptide (NGL) – 378 ± 48 (C6), 344 ± 57 (GL261), 301 ± 66 (U87), 313 ± 56 (U251) (P<0.001). […] Following FACS analysis the cell pellet was collected and evaluated for peptides cell uptake employing confocal microscopy ( Figure 6B ). The obtained microscopy data confirmed higher accumulation of RAS70 peptide in studied cell lines as compared to TKD or scramble peptides.
(§3) Figure 6 Evaluation of the mHsp70-targeting peptides internalization by glioma cells. (A) Flow cytometric evaluation of FITC-labeled peptide accumulation in tumor cell lines (rat glioma C6, mouse glioma GL261, human glioblastoma U87 and U251) after co-incubation for 24 hours. […] (B) Confocal microscopy assessment of FITC-labeled peptide accumulation in tumor cell lines (rat glioma C6, mouse glioma GL261, human glioblastoma U87 and U251) after co-incubation for 24 hours. […] (C) Analysis of the peptides uptake by human U87 glioblastoma cells following co-incubation for 24 hours.
To evaluate the mHsp70-mediated uptake of the peptides prior to co-incubation with either TKD or RAS70 peptides cells were pre-treated with anti-Hsp70 antibodies (SPA-810, SPA-815) that are known to target the membrane-bound chaperone on cancer cells ([37]). […] The tripeptide RGD (Arg-Gly-Asp) motif is known to bind to integrins, including αvβ3 and αvβ5 expressed on brain tumor cells and tumor endothelial cells ([38], [39]). […] As expected, we observed the decrease of NGL-RGD and RAS70 internalization by tumor cells but not of TKD or NGL peptides ( Figure 6C ).

[4] = test system: human glioblastoma U251 cells; assay: Flow cytometry of FITC-labeled peptide internalization, 24 h; assay type: cell-based; conditions: 50 μg/mL, M ± SE, 3 independent experiments
Protocol: as §1, §2, §3

[5] = test system: C6 (rat glioma) cells; assay: as above; assay type: cell-based; conditions: 50 μg/mL, M ± SE, 3 independent experiments
Protocol: as §1, §2, §3

[6] = test system: GL261 (mouse glioma) cells; assay: as above; assay type: cell-based; conditions: 50 μg/mL, M ± SE, 3 independent experiments
Protocol: as §1, §2, §3

SMILES | accumulation of peptide in mHsp70-negative cells [1] | fluorescently labeled tumor cells in the lower chamber [2] [cells] | peptide internalization after pre-treatment with anti-Hsp70 antibodies ([3]; U87, 24 hours) | peptide uptake after pre-treatment with both anti-Hsp70 and anti-αvβ3/-αvβ5 mAbs ([3]; U87, 24 hours) | mean fluorescence intensity (MFI), internalization of FITC-labeled peptide [3] | mean fluorescence intensity (MFI), internalization of FITC-labeled peptide [4] | mean fluorescence intensity (MFI), internalization of FITC-labeled peptide [5] | mean fluorescence intensity (MFI), internalization of FITC-labeled peptide [6] | peptide internalization after pre-treatment with anti-αvβ3 and -αvβ5 antibodies ([3]; U87, 24 hours, cells pre-treated with anti-αvβ3 (LM609) and anti-αvβ5 (P1F6) mAbs (1:200))
CC(C)C[C@H](NC(=O)[C@H](CC(C)C)NC(=O)[C@H](CC(N)=O)NC(=O)[C@H](CC(N)=O)NC(=O)[C@H](CC(=O)O)NC(=O)[C@H](CCCCN)NC(=O)[C@@H](N)[C@@H](C)O)C(=O)NCC(=O)N[C@@H](CCCNC(=N)N)C(=O)N[C@@H](Cc1ccccc1)C(=O)N[C@@H](CCC(=O)O)C(=O)N[C@@H](CC(C)C)C(=O)N[C@@H](CO)C(=O)NCC(=O)O [TKD] | did not detect the accumulation | 337 ± 38 | significant decrease | significant abrogation | 2145 ± 189 | 2373 ± 201 | 2120 ± 152 | 2099 ± 107 | –
CC(C)C[C@H](NC(=O)[C@H](CC(C)C)NC(=O)[C@H](CC(N)=O)NC(=O)[C@H](CC(N)=O)NC(=O)[C@H](CC(=O)O)NC(=O)[C@H](CCCCN)NC(=O)[C@@H](N)[C@@H](C)O)C(=O)NCC(=O)N[C@@H](CCCNC(=N)N)C(=O)N[C@@H](Cc1ccccc1)C(=O)N[C@@H](CCC(=O)O)C(=O)N[C@@H](CC(C)C)C(=O)N[C@@H](CO)C(=O)NCC(=O)NCCC(=O)N[C@@H](CCCNC(=N)N)C(=O)NCC(=O)N[C@@H](CC(=O)O)C(=O)O [RAS70] | did not detect the accumulation | 578 ± 67 | significant decrease | significant abrogation | 2999 ± 209 | 3678 ± 212 | 2671 ± 201 | 3012 ± 182 | decrease
